Measured values published in US20130252930A1 (BIOMARIN PHARMACEUTICAL INC., priority 2010, published 2013).
Read-outs that look alike come from different tables or passages of the source.

Tests used:
[1] = target: T1, Cyp21 enzyme (Human HEK 293-Cyp21 stable transfected cells) (Homo sapiens, UniProt P08686); assay: CYP21-HEK293 enzymatic assay (IC50) (Biological Example 11); format: cell-based
T1 construct: expressed in transfected cells
T1 sequence (P08686 1-495): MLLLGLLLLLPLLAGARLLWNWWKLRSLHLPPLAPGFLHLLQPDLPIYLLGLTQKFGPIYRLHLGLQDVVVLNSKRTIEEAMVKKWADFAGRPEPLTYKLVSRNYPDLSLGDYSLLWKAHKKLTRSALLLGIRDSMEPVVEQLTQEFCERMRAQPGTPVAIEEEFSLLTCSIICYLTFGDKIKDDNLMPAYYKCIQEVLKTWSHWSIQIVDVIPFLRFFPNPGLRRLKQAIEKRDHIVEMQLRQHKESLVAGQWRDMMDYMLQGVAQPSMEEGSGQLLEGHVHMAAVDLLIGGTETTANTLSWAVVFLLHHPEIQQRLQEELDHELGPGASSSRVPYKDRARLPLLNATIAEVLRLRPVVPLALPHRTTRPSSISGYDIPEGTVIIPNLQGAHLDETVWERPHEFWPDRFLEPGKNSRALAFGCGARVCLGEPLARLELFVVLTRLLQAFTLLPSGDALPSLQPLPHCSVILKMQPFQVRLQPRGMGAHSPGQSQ

[2] = target: T2, CYP17 (human testicular microsome) (Homo sapiens, UniProt P05093); assay: CYP17 enzymatic assay (% inhibition at 1 nM) (Biological Example 12); format: biochemical; conditions: compound at 1 nM
T2 construct: using microsomal fraction from human testis (Celsis Cat #S00110) as the enzyme source; tissue Celsis S00110; host or cells: human testis microsomal fraction
T2 sequence (P05093 1-508): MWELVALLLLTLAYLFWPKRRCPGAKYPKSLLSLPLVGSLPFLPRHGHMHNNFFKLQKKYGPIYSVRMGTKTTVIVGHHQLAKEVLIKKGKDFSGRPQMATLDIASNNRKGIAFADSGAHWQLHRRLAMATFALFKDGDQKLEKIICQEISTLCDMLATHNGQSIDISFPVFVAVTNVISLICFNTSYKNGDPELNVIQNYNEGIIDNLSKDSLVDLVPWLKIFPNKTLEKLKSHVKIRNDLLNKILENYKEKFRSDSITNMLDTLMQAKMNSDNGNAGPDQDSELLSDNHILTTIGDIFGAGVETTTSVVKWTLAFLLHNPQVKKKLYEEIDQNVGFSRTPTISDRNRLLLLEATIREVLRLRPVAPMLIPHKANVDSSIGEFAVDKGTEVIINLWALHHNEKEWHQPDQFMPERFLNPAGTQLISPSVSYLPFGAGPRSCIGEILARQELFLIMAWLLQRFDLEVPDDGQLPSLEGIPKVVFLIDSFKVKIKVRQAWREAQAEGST

[3] = HEK 293-Cyp21 cells, read-out: Biological Example No. 11: CYP21-HEK293 enzymatic assay IC50
[4] = read-out: Biological Example No. 12: CYP17 enzymatic assay % inhibition at 1 nM
[5] = HEK 293-Cyp21 stable transfected cells, read-out: CYP21-HEK293 enzymatic assay IC50 (Biological Example No. 11)

SMILES	IC50 [1, 3] [nM]	inhibition at 0.001 µM [2, 4] [%]	IC50 [1, 5] [nM]	also measured
C[C@]12C=CC(=NO)C=C1C1(CC1)C[C@@H]1[C@@H]2CC[C@]2(C)C(c3cccnc3)=CC[C@@H]12 [Compound 365, (6cR,8aS)-10,13-dimethyl-17-(pyridin-3-yl)-7,8,9,11,12,13,14,15-octahydrospiro[cyclopenta[a]phenanthrene-6,1′-cyclopropan]-3(10H)-one oxime]	> 100	10 to 50	–	–
C[C@]12CCC(=O)C=C1C(c1ccccc1)CC1C2CC[C@]2(C)C(c3cccnc3)=CCC12 (stereo partly drawn) [Compound 338, (10R,13S)-10,13-dimethyl-6-phenyl-17-(pyridin-3-yl)-6,7,8,9,10,11,12,13,14,15-decahydro-1H-cyclopenta[a]phenanthren-3(2H)-one]	> 1000	< 10	–	–
CC1=C2CCC3C4=CC=C(c5cccnc5)[C@@]4(C)CCC3[C@@]2(C)CCC1=O (stereo partly drawn) [Compound 296, (10R,13S)-4,10,13-trimethyl-17-(pyridin-3-yl)-6,7,8,9,10,11,12,13-octahydro-1H-cyclopenta[a]phenanthren-3(2H)-one]	–	–	–	IC50 ([1]; HEK 293-Cyp21 cells, read-out: CYP21-HEK293 enzymatic assay IC50 (Biological Example No. 11)): > 100 nM; inhibition at 0.001 µM ([2]; read-out: CYP17 enzymatic assay % inhibition at 1 nM (Biological Example No. 12)): > 50%
C[C@]12CC[C@H]3[C@@H](CC(C4CC4)C4=CC(=O)CC[C@@]43C)C1=CC=C2c1cccnc1 (stereo partly drawn) [Compound 343, (10R,13S)-6-cyclopropyl-10,13-dimethyl-17-(pyridin-3-yl)-6,7,8,9,10,11,12,13-octahydro-1H-cyclopenta[a]phenanthren-3(2H)-one]	> 100	10 to 50	–	–
C[C@]12CCC3C(CCC4CCN(S(C)(=O)=O)CC[C@@]43C)C1=CC=C2n1ccnc1 (stereo partly drawn) [Compound 489, (5aS,7aS)-8-(1H-imidazol-1-yl)-5a,7a-dimethyl-3-(methylsulfonyl)-1,2,3,4,5,5a,5b,6,7,7a,10b,11,12,12a-tetradecahydrocyclopenta[5,6]naphtho[1,2-d]azepine]	–	–	> 1000	–
C[C@]12CCN(S(C)(=O)=O)CCC1CC[C@@H]1[C@@H]2CC[C@]2(C)C(n3ccnc3)=CC[C@@H]12 (stereo partly drawn) [Compound 438, (5aS,7aS)-8-(1H-imidazol-1-yl)-5a,7a-dimethyl-3-(methylsulfonyl)-1,2,3,4,5,5a,5b,6,7,7a,10,10a,10b,11,12,12a-hexadecahydrocyclopenta[5,6]naphtho[1,2-d]azepine]	–	–	> 1000	–
C[C@]12CC[C@H]3[C@@H](CC4(CC4)C4=CC(=O)CC[C@@]43C)C1=CC=C2c1cncc(F)c1 [Compound 354, (10R,13S)-17-(5-fluoropyridin-3-yl)-10,13-dimethyl-1,7,8,9,10,11,12,13-octahydrospiro[cyclopenta[a]phenanthrene-6,1′-cyclopropan]-3(2H)-one]	–	–	10 to 100	–
C[C@]12CCN(S(C)(=O)=O)CCC1CCC1C2CC[C@]2(C)C(n3cncc3C#N)=CCC12 (stereo partly drawn) [Compound 432, 1-((5aS,7aS)-5a,7a-dimethyl-3-(methylsulfonyl)-1,2,3,4,5,5a,5b,6,7,7a,10,10a,10b,11,12,12a-hexadecahydrocyclopenta[5,6]naphtho[1,2-d]azepin-8-yl)-1H-imidazole-5-carbonitrile]	–	–	> 1000	–
C[C@]12CC[C@H]3[C@@H](CC4(CC4)C4=CC(=O)CC[C@@]43C)C1=CC=C2c1cccnc1 [Compound 351, (10R,13S)-10,13-dimethyl-17-(pyridin-3-yl)-1,7,8,9,10,11,12,13-octahydrospiro[cyclopenta[a]phenanthrene-6,1′-cyclopropan]-3(2H)-one]	–	–	< 10	–
CN1CC[C@@]2(C)C(=CC1=O)C1CC1[C@H]1C3=CC=C(c4cccnc4)[C@@]3(C)CC[C@@H]12 (stereo partly drawn) [Compound 396, (5aR,7aS)-3,5a,7a-trimethyl-8-(pyridin-3-yl)-3,4,5,5a,5b,6,7,7a,10b,10c,11,11a-dodecahydro-2H-cyclopenta[5,6]cyclopropa[3,4]naphtho[1,2-d]azepin-2-one]	–	–	10 to 100	–
